This assay concerns BDF1 mice, B16 melanoma ip, median survival T/C. The assay is described as follows: NCI In Vivo Anticancer Drug Screen. Data for tumor model B16 Melanoma (intraperitoneal) in B6D2F1 (BDF1) mice. Particulars: endpoint: median survival time, higher = longer survival. The essentials: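 Tumor-bearing mice received test compound or vehicle. Survival or tumor size was then measured in both groups. The treated-group figure was divided by the control-group figure.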

Inconclusive results and toxic doses are left out.

As to `COC12[C@@H]3N[C@@H]3CN1C1=C(C(=O)C(NCCSSCCNC3=C(C)C(=O)C4=C(C3=O)C(COC(N)=O)[C@]3(OC)C5N[C@@H]5CN43)=C(C)C1=O)[C@@H]2COC(N)=O` (some centres undefined), the T/C is, setting by setting: (dose: 0.2 mg/kg/injection, schedule: Q04DX003 (ip), vehicle: other) 168 % of control; (dose: 0.4 mg/kg/injection, schedule: Q04DX003 (ip), vehicle: other) 241 % of control; (dose: 0.8 mg/kg/injection, schedule: Q04DX003 (ip), vehicle: other) 295 % of control; (dose: 1.5 mg/kg/injection, schedule: Q04DX003 (ip), vehicle: saline with Tween-80) 184 % of control; (dose: 1.6 mg/kg/injection, schedule: Q04DX003 (ip), vehicle: other) 295 % of control; (dose: 3.0 mg/kg/injection, schedule: Q04DX003 (ip), vehicle: saline with Tween-80) 197 % of control. Also, the T/C is 295 % of control (dose: 3.2 mg/kg/injection, schedule: Q04DX003 (ip), vehicle: other); 288 % of control (dose: 6.0 mg/kg/injection, schedule: Q04DX003 (ip), vehicle: saline with Tween-80); 295 % of control (dose: 6.4 mg/kg/injection, schedule: Q04DX003 (ip), vehicle: other); 288 % of control (dose: 12.0 mg/kg/injection, schedule: Q04DX003 (ip), vehicle: saline with Tween-80).
Consider `Cn1c(=O)c2[nH]c(Cc3ccc4c(c3)OCO4)nc2n(C)c1=O`, for which the T/C is 96 % of control (dose: 0.25 mg/kg/injection, schedule: Q01DX009 (ip), vehicle: Klucel (hydroxypropylcellulose) (HPC)); 94 % of control (dose: 0.5 mg/kg/injection, schedule: Q01DX009 (ip), vehicle: Klucel (hydroxypropylcellulose) (HPC)); 96 % of control (dose: 1.0 mg/kg/injection, schedule: Q01DX009 (ip), vehicle: Klucel (hydroxypropylcellulose) (HPC)); 93 % of control (dose: 2.0 mg/kg/injection, schedule: Q01DX009 (ip), vehicle: Klucel (hydroxypropylcellulose) (HPC)).

Values taken from PubChem BioAssay AID192 (DTP/NCI, 2004).
